Earlier results as cited in patent publication US6403864B1, “Precursor polypeptide of a plant growth factor, a gene encoding a precursor polypeptide of a plant growth factor and a method for promotion of plant growth” (Nagoya University, priority 1999, dated 2002).
Where no end group is shown, it is not given here. [ ]: non-standard residue; d: D form. sY = N[C@@H](Cc1ccc(OS(=O)(=O)O)cc1)C(=O)O

Test system: plant cell
Settings: compared with PSK-α

[sY]I[sY]T [PSK-β]
Cell proliferation activity relative to PSK-α: less than one-tenth
